One assay concerns the target T1, A1 adenosine receptor (Homo sapiens, UniProt P30542).
T1 construct: host or cells: tissues (not specified)
T1 sequence (P30542 1-326): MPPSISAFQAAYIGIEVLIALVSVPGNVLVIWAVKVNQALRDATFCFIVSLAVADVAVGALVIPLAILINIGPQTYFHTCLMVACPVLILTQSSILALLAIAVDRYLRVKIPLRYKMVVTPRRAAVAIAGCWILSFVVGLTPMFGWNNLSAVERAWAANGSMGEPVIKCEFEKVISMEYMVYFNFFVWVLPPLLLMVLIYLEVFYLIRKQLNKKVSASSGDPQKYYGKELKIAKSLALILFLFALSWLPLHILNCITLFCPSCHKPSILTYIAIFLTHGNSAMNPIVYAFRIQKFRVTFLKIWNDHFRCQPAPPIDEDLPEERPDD
To be noted: in tissues; cited from earlier work.

Assay [1] has as its target T2, A1 adenosine receptors in membranes from feline PAECs (Felis catus, UniProt A0ABI7XJE9).
T2 sequence (A0ABI7XJE9 1-326): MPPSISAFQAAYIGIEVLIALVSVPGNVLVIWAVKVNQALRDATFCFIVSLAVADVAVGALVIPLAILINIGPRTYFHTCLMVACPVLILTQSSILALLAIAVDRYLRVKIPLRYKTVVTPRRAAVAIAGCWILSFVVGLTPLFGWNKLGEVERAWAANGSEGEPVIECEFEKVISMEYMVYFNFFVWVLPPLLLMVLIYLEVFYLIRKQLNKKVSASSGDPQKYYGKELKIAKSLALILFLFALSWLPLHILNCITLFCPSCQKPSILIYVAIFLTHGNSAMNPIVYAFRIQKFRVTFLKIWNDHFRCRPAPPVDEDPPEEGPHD
The experiment in a line: Competition experiments for [3H] DPCPX in feline PAEC membranes. Format: binding. To be noted: cultured feline PAEC membranes. On the procedure: (§1) Feline PAECs were grown to confluency in […] culture plates. The confluent cells were washed twice with KSP buffer (10 mM KH2P04, 50 mM sucrose). The cells were scraped and suspended in KSP buffer at a concentration of 1×10^6 cells/ml in two conical centrifuge tubes. The tubes were centrifuged at 1000 g×2 minutes and the buffer discarded. The cells from one tube were then suspended in deoxygenated buffer (bubbled with N2 gas for 10 minutes) and bubbled with N2 gas for 30 seconds to insure hypoxic conditions. These cells were then incubated for 2 hours in this hypoxic buffer. Cells from the other tube were suspended in normal KSP buffer and incubated at 37° C. for 2 hours. At the end of incubation, cells were homogenized immediately for membrane preparation.
For membrane preparation, the cells were homogenized by sonication and centrifuged at 1000× g for 10 minutes. The supernatant was centrifuged again at 30,000× g for 30 minutes. […]
Radioligand binding data are analyzed with the use of Graph Pad Prism by nonlinear regression analysis equipped with a statistical package. Data are expressed as mean±SEM. Hill plots and Schild plots are determined for each species of LPS in competition experiments and are used as standard curves for the determinations of the concentration of endotoxin in samples with unknown concentrations of endotoxin.

For assay [2], the target named is T3, A1 adenosine receptors in hamster brain membranes (Mesocricetus auratus, UniProt A0A1U8BVR4).
T3 sequence (A0A1U8BVR4 1-326): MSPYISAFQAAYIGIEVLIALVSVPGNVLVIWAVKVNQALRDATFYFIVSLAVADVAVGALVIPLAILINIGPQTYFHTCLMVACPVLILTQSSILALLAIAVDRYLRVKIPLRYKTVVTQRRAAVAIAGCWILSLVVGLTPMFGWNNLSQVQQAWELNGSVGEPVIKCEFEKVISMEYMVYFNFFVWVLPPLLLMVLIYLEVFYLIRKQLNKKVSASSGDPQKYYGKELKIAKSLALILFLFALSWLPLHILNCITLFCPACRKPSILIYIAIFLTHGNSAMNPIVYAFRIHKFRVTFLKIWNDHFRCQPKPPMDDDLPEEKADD
The assay can be described thus: Saturation experiments with [3H] DPCPX or [3H] CCPA in hamster brain membranes. Format: binding. On the procedure: (§2) Frozen sheep brain (Pel Freeze, Rodgers, Ark.) or hamster brain (Harlan Bioproducts, Indianapolis, Ind.) was thawed and homogenized in 10 volumes of cold (4° C.), 0.32 M sucrose. The homogenate was centrifuged at 1,000× g for 10 minutes to remove the nuclear fraction. The supernatant was centrifuged at 30,000× g for 30 minutes. The resulting pellet was resuspended in 10 ml water and left on ice for 30 minutes to obtain synaptosomal membranes. The suspension was then centrifuged at 48,000× g for 10 minutes and the membranes resuspended in 50 mM Tris-HCl (pH 7.4) at a concentration of 8 mg protein/ml, frozen in liquid nitrogen, and stored at −20° C. until binding assay.
(§3) Binding of [^3H] DPCPX or [^3H] CCPA to membranes was carried out in an assay volume of 500 μl Tris-HCl, pH 7.4, MgCl2 (10 mM) (for membranes from feline PAECs only) containing [^3H] DPCPX or [^3H] CCPA (0.01 to 4 nM). Nonspecific binding of [^3H] DPCPX or [^3H] CCPA was determined in the presence of R-PIA (100 μM) or theophylline (1 mM), respectively. To remove endogenous adenosine, adenosine deaminase was present in all binding assays at a concentration of 0.2 U/ml. Incubations were performed for 2 hours at room temperature for sheep and hamster brain membranes and 4° C. for feline PAEC membranes. Incubations were terminated by rapid removal of the incubation buffer by filtration through Whatman GF/B filters (Whatman Inc., Clifton, N.J.). The membrane bound radioactivity was measured by scintillation counting of the filter paper. To determine Kd, Bmax, and nonspecific binding in sheep and hamster brain and feline PAEC membranes, experiments are performed in duplicate.

In assay [3] the target is T2, A1 adenosine receptors in membranes from feline PAECs. The assay can be described thus: Saturation experiments with [3H] DPCPX in feline PAEC membranes. In kind it is binding. On the procedure: as §1
For membrane preparation, the cells were homogenized by sonication and centrifuged at 1000× g for 10 minutes. The supernatant was centrifuged again at 30,000× g for 30 minutes. The membrane fraction was reconstituted with Tris buffer for radioligand binding studies.
as §3

Assay [4] has as its target T4, A1 adenosine receptors in sheep brain membranes (Ovis aries, UniProt A0ACI6R3B7).
T4 sequence (A0ACI6R3B7 1-326): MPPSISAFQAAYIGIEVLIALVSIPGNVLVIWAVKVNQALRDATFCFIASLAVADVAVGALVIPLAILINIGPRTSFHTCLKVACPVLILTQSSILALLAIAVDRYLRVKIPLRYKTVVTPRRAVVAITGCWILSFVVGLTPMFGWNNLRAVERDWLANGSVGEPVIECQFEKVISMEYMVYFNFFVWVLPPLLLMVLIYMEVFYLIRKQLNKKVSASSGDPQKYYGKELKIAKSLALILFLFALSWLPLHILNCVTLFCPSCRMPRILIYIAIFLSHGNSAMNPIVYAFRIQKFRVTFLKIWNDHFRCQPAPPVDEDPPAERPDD
The experiment in a line: Saturation experiments with [3H] DPCPX or [3H] CCPA in sheep brain membranes. Format: binding. On the procedure: as §2, §3

As to `CCCn1c(=O)c2[nH]c(C3CCCC3)nc2n(CCC)c1=O` [DPCPX, 1,3-dipropyl-8-cyclopentylxanthine], the nonspecific binding entry at A1 adenosine receptor is recorded as “less than 1%”.

In the case of `Nc1nc(Nc2ccccc2)nc2c1ncn2[C@@H]1O[C@H](CO)[C@@H](O)[C@H]1O` [CV 1808, 2-phenylaminoadenosine], in assay [1], the “displacement of bound [3H] DPCPX” value was “did not displace”.

Regarding `CCCn1c(=O)c2[nH]c(C3CCCC3)nc2n(CCC)c1=O` [[^3H]-DPCPX, [^3H]-1,3-dipropyl-8-cyclopentyladenosine xanthine], the Kd in assay [2] (hamster brain membranes) turned out to be 0.32 nM; in assay [3] (hypoxia), 0.26 nM; in assay [3] (normoxia), 0.33 nM; in assay [4] (sheep brain membranes), 0.37 nM. In addition, the Bmax amounted to 3733 fmoles/mg protein in assay [2] (hamster brain membranes, [3H]-DPCPX saturation); 1458 fmoles/mg protein in assay [3] (hypoxia); 1064 fmoles/mg protein in assay [3] (normoxia); 2251 fmoles/mg protein in assay [4] (sheep brain membranes, [3H]-DPCPX saturation).

On to `OC[C@H]1O[C@@H](n2cnc3c(NC4CCCC4)nc(Cl)nc32)[C@H](O)[C@@H]1O` [[^3H] CCPA, 2-chloro-N^6-cyclopentyladenosine], for which the “density of high affinity A1 adenosine receptors” value amounted to 1630 ± 60 fmol/mg in assay [2] (hamster brain, determined using [3H] CCPA) and 1920 ± 250 fmol/mg in assay [4] (sheep brain, determined using [3H] CCPA).

Usually Kd stands for the constant that tells how readily two partners part at equilibrium. Read a low Kd as tighter binding.

The record behind these values is patent publication US6908742B2, “Methods and kits for the detection of endotoxin” (priority 1996, dated 2005).
